Columns and labels:
[1] = rats; cited from earlier work
[2] = BMAA in dried skin of flying fox museum specimens (HPLC); conditions: Pteropus mariannus dried skin
Method: BMAA levels were measured in tissues of Cycas micronesica Hill from Guam, and tissues of Pteropus mariannus mariannus, an indigenous flying fox (bat) of Guam. Because Pteropus mariannus mariannus is now highly endangered, BMAA levels were measured in skin tissue from museum specimens of three flying foxes that were collected five decades ago in Guam, preserved as dried study skins, and deposited at the Museum of Vertebrate Zoology (MVZ), at the University of California, Berkeley.
BMAA was detected using high performance liquid chromatography (HPLC), and results were confirmed with thin layer chromatography (TLC) and gas chromatography-mass spectroscopy (GC-MS). For BMAA analysis, free amino acid extracts of flying fox and cycad tissues were prepared. Tissue samples were rehydrated for 30 minutes with water or trichloroacetic acid (mean tissue prep 80 mg/ml±32 SD), macerated, and filtered. Extracts were derivatized with 6-aminoquinolyl-N-hydrozysuccinimidyl carbamate (ACQ) following standardized protocols. […] The concentration of BMAA in samples was determined by the fluorescent tag using a Waters 2487 Dual-1 Fluorescence Detector, with excitation at 250 nm and emission at 395 nm. Detection of the ACQ-derivatized BMAA was dependent on concentration and quantification was accomplished with comparison of equal amounts of BMAA and a norleucine internal standard (representing a single mid-range concentration) resulting in a mean response of 51.2%. […] The limits of detection (LOD, defined as the lowest concentration of an analyte in a sample that can be detected though not necessarily quantitated) and limits of quantification (LOQ, the concentration within the linear range of the calibration curve relating absorbance to concentration) were determined by a concentration gradient of an authenticated standard (Sigma Chemical Co., St. Louis, Mo.). […] For data interpretations, all sample analyses were quantified within the range of the LOQ or were reported as not detected (ND) (Table 1). […]

[3] = Banack & Cox, 2003; cited from earlier work
[4] = Free and protein-associated BMAA in superior frontal gyrus tissue of patients; parameters: species or system human
Method: Tissues were provided by Dr. Patrick McGeer of the University of British Columbia, Vancouver, B.C., Canada. Autopsied tissues from patients were fixed in paraformaldehyde prior to storage in 15% buffered sucrose maintenance solution, where the time interval between death and autopsy varied from 4 hours to 5 days. Familial relationships, clinical histories, and histochemical characteristics of the Chamorro patients had been disclosed previously (McGeer et al, 1997, Neurology 49, 400-409). In addition, autopsied tissued from Canadian patients was provided, including two samples from two (2) Canadian patients who were clinically diagnosed with Alzheimer's disease prior to death, and thirteen (13) Canadian patients who died of natural causes other than progressive neurodegenerative diseases.
Tissues were homogenized twice in 0.1 N trichloroacetic acid and centrifuged at 15,800×g for 3 min to precipitate proteins and extract free amino acids. Protein-bound BMAA was released by hydrolysis of the precipitate at 110° C. in constant boiling 6N HCl for 24 hours. Particulate matter was removed from a 500 μl aliquot by ultrafiltration (Ultrafree-MC, Millipore Corp.) at 15,800×g and the resulting extract was freeze-dried. Amino acids were resuspended in 20 mM HCl, applied to a Sep-Pac C18 cartridge equilibrated with sequential washes of 100% methanol, 50% methanol in water, and a gradient of borate buffer:acetronitrile (0.5M borate:0-60% CH3CN) at 20% increments. BMAA in sample extracts was derivatized with 6-aminoquinolyl-N-hydroxysuccinimidyl carbamate following standardized protocols (Banack et al., 2003, Neurology 61: 387-389). Amino acids were quantified via HPLC separation as described above (Example 3). The presence of BMAA in the samples, as well as the identity and purity of the BMAA peak in the HPLC fractions, was verified by liquid chromatography mass spectroscopy (LC-MS) using an Agilent 1100 HPLC coupled with a variable wavelength diode array detector (DAD) and an SL single quadrapole MS with an atmospheric pressure ionization source (API) using the electrospray ionization interface (ESI). Compounds were separated on a Waters SymetryShield RP 18 column heated at 30° C. with a linear gradient elution of CH3CN (10 40%) in water. Nitrogen gas was purified and supplied to the ESI interface with a nebulizing pressure of 35 psi and two distinct modes were used for detection of compounds within the MS. The DAD detected compounds at 254 nm with a full spectral scan from 200 600 nm and 0.5 nm resolution within a semi micro flow cell. The initial signal was determined in positive scan mode with a 100 600 Da range at 50V fragmentor voltage. BMAA was identified using the extracted ion chromatogram in which the molecular ion peak was confirmed.

cyanobacterial symbiont = test: Effect of amino acid supplementation of BG-11 medium on cyanobacterial growth; assay type: cell-based, Nostoc; conditions: BG-11 medium supplemented with glutamate or glutamine (0, 126, or 250 μmol/L)
From the text: Cyanobacterial symbionts were isolated from infected coralloid roots of Cycas micronesica Hill, harvested from three accessioned specimens (vouchered specimens of known provenance) growing in the National Tropical Botanical Garden, Kalaheo, Kauai, and grown as an axenic culture with repeated passages. For analysis of cycad root tissues infected with cyanobacterial symbiots, soil-borne bacteria were removed from root tissues of Cycas micronesica Hill by surface-sterilizing roots immersion in a solution of 70% ethanol for 3 min, followed by a 30 min immersion in 1.6% sodium hypochlorite with 2 drops of surfactant and 3 sequential washes with sterile deionized water. Surface-sterilized root explants (1-2 cm long) were excised and cultured onto standard BG-11 medium, pH 7.1 solidified with gellam gum (Sigma). Root explant cultures were incubated in a controlled environment room with a 16 h photoperiod at a light intensity of 35-45 μmole/m^2/s and temperatures of 25-30° C. After 7-10 days of culture, proliferation of colonies of the cyanobacterial symbiont of the root explants was clearly visible. Serial subculture of individual cyanobacterial colonies ensured the absence of residual BMAA from root tissue. […] Histological verification of culture purity was conducted prior to chemical analyses. […]

[5] = superior frontal gyrus, Alzheimer's, Canadian (first patient)
[6] = superior frontal gyrus, Alzheimer's, Canadian (second patient)
[7] = superior frontal gyrus, PDC (Lytico-bodig), Chamorro, donor one

SMILES | injected BMAA not eliminated from either urine or feces [1] [%] | Concentration ([2]; specimen 114606) | Concentration ([2]; specimen 114607) | Concentration ([2]; specimen 114609) | stability in dried mammal specimens of great age [3] | quantity of protein-bound BMAA compared to free BMAA ([4]; brain tissue, all other patients) | BMAA recovered from the protein-bound fraction ([4]; brain tissue, one Lytico-Bodig (ALS-PDC) patient with no unbound BMAA) | Protein-bound BMAA ([4]; frontal cortex tissue, all six Chamorro patients who had died from ALS-PDC) [µg/g] | Free BMAA ([4]; frontal cortex tissue, five of six Chamorro patients who had died from ALS-PDC) [µg/g] | Free BMAA [4, 5] [µg/g] | Protein-bound BMAA [4, 5] [µg/g] | Free BMAA [4, 6] [µg/g] | Protein-bound BMAA [4, 6] [µg/g] | Free BMAA [4, 7] [µg/g] | Protein-bound BMAA [4, 7] [µg/g] | BMAA level in brain tissue ([4]; thirteen Canadian patients without Alzheimer's diagnosis who died of other causes) | cyanobacterial growth (cyanobacterial symbiont)
CNC[C@H](N)C(=O)O [BMAA, β-N-methylamino-L-alanine] | 90 | 1,879 μg/g | 7,502 μg/g | 1,287 μg/g | stable | 60-130 fold | more than 1 mg/g | 149 to 1190 | 3 to 10 | 3.4 | 220 | 9.7 | 264 | 3.3 | 433 | did not have detectable levels | –
N[C@@H](CCC(=O)O)C(=O)O [GLU, glutamic acid] | – | – | – | – | – | – | – | – | – | – | – | – | – | – | – | – | increased two-fold
NC(=O)CC[C@H](N)C(=O)O [glutamine] | – | – | – | – | – | – | – | – | – | – | – | – | – | – | – | – | increased two-fold

Source: patent US10048278B2, “Screening for neurotoxic amino acid associated with neurological disorders” (priority 2003, dated 2018)
